Measured values: article PMC12023740, “Semi-synthesis and biological activities of heterocyclic compounds containing camphor” (RSC Advances, 2025)

What was measured:
[1] = tested on: MCF-7 breast carcinoma cells; assay: MTT cytotoxicity assay, MCF-7; assay type: cell-based, human; settings: mean ± SD of three experiments
Experimental: (§1) MCF-7 Adenocarcinoma of the breast in humans and A549 […] lines of cells (purchased from Labco's Sigma-Aldrich) were employed to evaluate the newly synthesized compounds' anti-cancer potential. […] The American type culture collection provided the cell lines and were cultured in 10% FBS added to DMEM (Invitrogen/Life Technologies) (Hyclone), a 10 μg ml^−1 of insulin (Sigma), and a 1% penicillin-streptomycin. The suppliers of all other chemicals and reagents were either Invitrogen or Sigma.
(§2) For the MTT assay, cells were plated at a density of 1.2 to 1.8 × 10 000 cells per well in a total volume of 200 μl, comprising 100 μl of a full growing medium and 100 μl of the substance that was evaluated in each well. The cells were then incubated for 24 hours.
(§3) Aspirate the cells gently using a pipette after adding 6.0 to 8.0 ml of full growth media. […] Transfer the proper aliquots to new culture vessels, discard the supernatant, and resuspend the cell pellet in fresh growth media. For a full day, incubate the cultures at 37 °C. […] To perform the MTT assay, examine the plates using an inverted microscope.
(§4) Additionally, incorporate a blank control containing complete medium without any cells. Remove the cultures from the incubator and transfer them to a laminar flow hood or sterile workspace. […] Add the reconstituted MTT in an amount equal to 10% of the total volume of the culture medium. Return the cultures to the incubator for 2 to 4 hours, depending on the cell type and maximum cell density; typically, 2 hours is adequate, though longer incubation may be required for low-density or less metabolically active cells. It is important to maintain consistent incubation times for accurate comparisons.
(§5) Gentle mixing with a gyratory shaker will facilitate the dissolution of the crystals. In denser cultures, pipetting up and down may be necessary to ensure complete dissolution of the MTT formazan crystals. Measure the absorbance spectrophotometrically at 570 nm and assess the background absorbance of the multi-well plates at 690 nm, which should be subtracted from the 570 nm measurement. The tests in multi-well plates can be read using an appropriate plate reader, or the contents can be transferred to cuvettes for measurement.

A549 lung cancer cells = assay: MTT cytotoxicity assay, A549; assay type: cell-based, human; settings: mean ± SD of three experiments
Experimental: as §1, §2, §3, §4, §5

EGFR^WT = target: T1, EGFR^WT (Homo sapiens, UniProt P00533); assay: EGFR Kinase Assay Kit (Catalog # 40321), Kinase-Glo Max luminescence; assay type: biochemical; settings: five concentrations, read-out: EGFR kinase inhibitory activity IC50
T1 construct: purchased 40321
T1 sequence (P00533 668-1210 limits assumed): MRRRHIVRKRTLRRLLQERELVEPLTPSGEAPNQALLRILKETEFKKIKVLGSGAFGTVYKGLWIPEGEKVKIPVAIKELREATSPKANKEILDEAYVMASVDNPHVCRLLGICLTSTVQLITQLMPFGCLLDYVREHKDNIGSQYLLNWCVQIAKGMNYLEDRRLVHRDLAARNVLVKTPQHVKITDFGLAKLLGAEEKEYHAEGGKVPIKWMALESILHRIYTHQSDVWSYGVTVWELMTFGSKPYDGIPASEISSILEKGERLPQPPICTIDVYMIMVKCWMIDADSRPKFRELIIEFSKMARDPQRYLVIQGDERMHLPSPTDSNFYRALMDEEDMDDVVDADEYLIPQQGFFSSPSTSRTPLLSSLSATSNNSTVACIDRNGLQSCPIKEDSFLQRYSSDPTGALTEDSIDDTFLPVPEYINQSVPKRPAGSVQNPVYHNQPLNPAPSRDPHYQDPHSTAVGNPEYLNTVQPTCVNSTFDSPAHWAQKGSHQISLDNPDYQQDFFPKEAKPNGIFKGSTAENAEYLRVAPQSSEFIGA

| SMILES | IC50 ([1]; Homo sapiens, MCF7, MTT test) [µM] | IC50 (A549 lung cancer cells; Homo sapiens, A549, MTT test) [µM] | IC50 (EGFR^WT) [µM] | IC50 ([1]; MTT test) [µM] | IC50 (A549 lung cancer cells; MTT test) [µM] |
| --- | --- | --- | --- | --- | --- |
| CC12CCC(C/C1=N/N=C/c1cn(-c3ccc(S(N)(=O)=O)cc3)nc1-c1ccc(Br)cc1)C2(C)C (stereo not shown) [Compound 20] | 0.78 ± 0.03 | 1.69 ± 0.06 | 0.198 | – | – |
| CC12CCC(C3(C1)NC(=S)NC(=O)C3C#N)C2(C)C (stereo not shown) [Compound 7, 4,7,7-Trimethyl-6′-oxo-2′-thioxotetrahydro-1′H-spiro[bicyclo[2.2.1]heptane-2,4′-pyrimidine]-5′-carbonitrile] | 10.1 ± 0.39 | 22.2 ± 0.77 | – | – | – |
| C#Cc1cccc(Nc2ncnc3cc(OCCOC)c(OCCOC)cc23)c1 [Erlotinib, reference compound] | 13.9 ± 1.3 | – | – | – | – |
| COc1cccc2c1C(=O)c1c(O)c3c(c(O)c1C2=O)C[C@@](O)(C(=O)CO)C[C@@H]3O[C@H]1C[C@H](N)[C@H](O)[C@H](C)O1 [Doxorubicin, reference compound] | 3.1 | 2.43 ± 0.08 | – | 3.12 ± 0.11 | – |
| CC(=O)C1C(=O)NC(=O)NC12CC1(C)CCC2C1(C)C (stereo not shown) [Compound 12, 5′-Acetyl-4,7,7-trimethyl-1′H-spiro[bicyclo[2.2.1]heptane-2,4′-pyrimidine]-2′,6′(3′H,5′H)-dione] | 3.2 ± 0.12 | 14.4 ± 0.5 | – | – | – |
| CC12CCC(C3(C1)NC(=O)NC(=N)C3C#N)C2(C)C (stereo not shown) [Compound 10, 6′-Imino-4,7-trimethyl-2′-oxotetrahydro-1′H-spiro[bicyclo[2.2.1]heptane-2,4′-pyrimidine]-5′-carbonitrile] | 12.7 ± 0.47 | 23.3 ± 0.81 | – | – | – |
| Cc1nc(Nc2ncc(C(=O)Nc3c(C)cccc3Cl)s2)cc(N2CCN(CCO)CC2)n1 [Dasatinib, reference compound] | 7.99 ± 0.29 | 11.8 | – | – | 11.8 ± 0.41 |
| CC12CCC(C/C1=N/N=c1\[nH]c(-c3ccc(Br)cc3)cs1)C2(C)C (stereo not shown) [Compound 16c] | 2.84 ± 0.1 | 1.29 ± 0.04 | – | – | – |
| Cc1ccc(-c2cs/c(=N/N=C3/CC4CCC3(C)C4(C)C)[nH]2)cc1 (stereo not shown) [Compound 16a] | 2.16 ± 0.08 | 4.13 ± 0.14 | – | – | – |
| CC12CCC(C/C1=N/N=c1\[nH]c(-c3ccc(Cl)cc3)cs1)C2(C)C (stereo not shown) [Compound 16b] | 8.29 ± 0.3 | 15.2 ± 0.53 | – | – | – |
| CC12CCC(C3(C1)NC(=O)NC(=O)C3C#N)C2(C)C (stereo not shown) [Compound 11, 4,7,7-Trimethyl-2′,6′-dioxotetrahydro-1′H-spiro[bicyclo[2.2.1]heptane-2,4′-pyrimidine]-5′-carbonitrile] | 35 ± 1.32 | 56.6 ± 2.01 | – | – | – |
| CC(=O)C1C(=O)NC(=S)NC12CC1(C)CCC2C1(C)C (stereo not shown) [Compound 8, 5′-Acetyl-4,7,7-trimethyl-2′-thioxodihydro-1′H-spiro[bicyclo[2.2.1]heptane-2,4′-pyrimidin]-6′(5′H)-one] | 6.15 ± 0.23 | 3.34 ± 0.12 | – | – | – |
| CC12CCC(C3(C1)NC(=S)NC(=N)C3C#N)C2(C)C (stereo not shown) [Compound 6, 6′-Imino-4,7,7-trimethyl-2′-thioxotetrahydro-1′H-spiro[bicyclo[2.2.1]heptane-2,4′-pyrimidine]-5′-carbonitrile] | 19.9 ± 0.73 | 28.5 ± 0.99 | – | – | – |
